Each compound was assayed against T1, Human CYP8B1 (Homo sapiens, UniProt Q9UNU6) (assay: Human CYP8B1 Liver Microsome Assay). Conditions: Human CYP8B1 IC50, human liver microsomes; substrate 7a-hydroxy-4-cholesten-3-one, NADPH; RapidFire MS detection of 7α,12α-dihydroxy-4-cholesten-3-one.
T1 sequence (Q9UNU6 1-501): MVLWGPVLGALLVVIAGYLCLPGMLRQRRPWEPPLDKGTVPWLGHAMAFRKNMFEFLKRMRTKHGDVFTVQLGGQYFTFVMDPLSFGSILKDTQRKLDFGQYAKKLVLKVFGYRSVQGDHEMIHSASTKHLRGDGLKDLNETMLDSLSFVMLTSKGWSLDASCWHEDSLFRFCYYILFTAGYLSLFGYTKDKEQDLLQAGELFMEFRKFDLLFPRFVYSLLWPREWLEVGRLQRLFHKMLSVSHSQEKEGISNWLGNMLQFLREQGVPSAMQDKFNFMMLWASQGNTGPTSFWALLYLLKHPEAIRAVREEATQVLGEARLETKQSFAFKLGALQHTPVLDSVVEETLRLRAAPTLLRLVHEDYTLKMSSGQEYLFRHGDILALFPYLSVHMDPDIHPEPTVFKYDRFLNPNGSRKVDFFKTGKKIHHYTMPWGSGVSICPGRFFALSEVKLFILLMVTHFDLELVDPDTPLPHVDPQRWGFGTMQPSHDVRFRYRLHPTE
Method: To a 384 well polypropylene plate (Corning 3656), 250 nl of inhibitor in 100% DMSO (1.25% final DMSO concentration) was pre-plated using an Echo liquid handler (Labcyte Inc.). Human liver microsomes (Xenotech) were diluted in of 0.1 M phosphate buffer, pH 7.4, at a concentration of 65 μg/ml and 15 μL was added to the 384 well plate. The plates were incubated at ambient room temperature for 30 minutes. After pre-incubation with inhibitor, the reaction was initiated by adding 5 μl of substrate solution (4.0 μM 7a-hydroxy-4-cholesten-3-one (Toronto Research Chemicals), 2 mM of NADPH (Sigma), 0.1 M phosphate buffer (pH 7.4). The reaction was carried out for 45 minutes at ambient room temperature and was quenched by the addition of 50 μl of acetonitrile+0.1% vol/vol formic acid (FA)+300 nM 7α-hydroxy-4-cholesten-3-one-d7 (Toronto Research Chemicals). The plates were sealed and centrifuged at 3000 rpm for 5 minutes. Plates were loaded onto the Agilent RapidFire RF300 HTMS system, wherein samples were sipped for 600 ms, and the sip sensor detection signals the diversion of sample from the loop onto a C4 solid phase extraction (SPE) cartridge, where salts are washed off for 2500 ms with a mobile phase of water with 0.1% vol/vol FA at a flow rate of 1.5 ml/min. The column path was switched, and the sample was eluted off the cartridge and flowed into the mass spectrometer for 3000 ms with a mobile phase of acetonitrile and 0.1% vol/vol FA at a flow rate of 1.25 ml/min. The aspirator tip was washed separately with water and acetonitrile between sample aspirations (each for 600 ms) to minimize carryover contamination. Mass spectrometry was carried out using a Sciex API4000 triple quadrupole mass spectrometer (Applied Biosystems, Concord, ON, Canada) equipped with electrospray ionization (ESI) operated in the positive-ion mode. The product 7α,12α-dihydroxy-4-cholesten-3-one and internal standard 7α-hydroxy-4-cholsten-3-one-d7 were detected using multiple reaction monitoring (MRM) with Q1/Q3 transitions at m/z 417.3 to 381.3 and m/z 408.3 to 390.3, respectively, with a dwell time of 100 ms and a collision energy of 24 V for each transition. The mass spectrometer used an ESI voltage of 5000 V and a source temperature of 650° C. Extracted ion chromatograms for each transition were integrated and processed using the RapidFire Integrator software. The data for each well were normalized by monitoring product conversion with the ratio of AUCproduct/(AUCinternal standard). The data was then fitted to a four parameter logistic fit using ActivityBase Software to calculate an IC50 of the inhibitor.

Compound	IC50 [nM]
C[C@@H]1CN(c2c(C#N)cnc3c(F)c(Cl)ccc23)CC[C@@H]1C(=O)N1CCn2c(nnc2C(F)(F)F)C1 [Example 1, 7-chloro-8-fluoro-4-[(3S,4S)-3-methyl-4-{[3-(trifluoromethyl)-5,6-dihydro[1,2,4]triazolo[4,3-a]pyrazin-7(8H)-yl]carbonyl}piperidin-1-yl]quinoline-3-carbonitrile]	0.47
CO[C@H]1CN(c2c(C#N)cnc3ccc(Cl)cc23)CC[C@H]1C(=O)N1CCn2c(nnc2C(F)(F)F)C1 [Example 72c, 6-chloro-4-[(3R,4R)-3-methoxy-4-{[3-(trifluoromethyl)-5,6-dihydro[1,2,4]triazolo[4,3-a]pyrazin-7(8H)-yl]carbonyl}piperidin-1-yl]quinoline-3-carbonitrile]	2210
CC[C@H]1CN(c2c(C#N)cnc3c(F)c(OC)ccc23)CC[C@H]1C(=O)N1CCn2c(nnc2C(F)(F)F)C1 [Example 74a, 4-[(3R,4R)-3-ethyl-4-{[3-(trifluoromethyl)-5,6-dihydro[1,2,4]triazolo[4,3-a]pyrazin-7(8H)-yl]carbonyl}piperidin-1-yl]-8-fluoro-7-methoxyquinoline-3-carbonitrile]	343
N#Cc1cnc2cc(OCC3CC3)ccc2c1N1CCC(C(=O)N2CCn3c(nnc3C(F)(F)F)C2)CC1 [Example 68, 7-(cyclopropylmethoxy)-4-(4-{[3-(trifluoromethyl)-5,6-dihydro[1,2,4]triazolo[4,3-a]pyrazin-7(8H)-yl]carbonyl}piperidin-1-yl)quinoline-3-carbonitrile]	0.43
C[C@@H]1CN(c2c(C#N)cnc3c(Cl)c(F)ccc23)CC[C@@H]1C(=O)N1CCn2c(nnc2C(F)(F)F)C1 [Example 13, 8-chloro-7-fluoro-4-[(3S,4S)-3-methyl-4-{[3-(trifluoromethyl)-5,6-dihdyro[1,2,4]triazolo[4,3-a]pyrazin-7(8H)-yl]carbonyl}piperidin-1-yl]quinoline-3-carbonitrile]	3.3
Cc1nc2cc(F)c(F)cc2c(N2CCC(C(=O)N3CCn4c(nnc4C(F)(F)F)C3)CC2)c1C#N [Example 50, 6,7-difluoro-2-methyl-4-(4-(3-(trifluoromethyl)-5,6,7,8-tetrahydro-[1,2,4]triazolo[4,3-a]pyrazine-7-carbonyl)piperidin-1-yl)quinoline-3-carbonitrile]	2260
Cc1nc2c(F)cc(F)cc2c(N2CCC(C(=O)N3CCn4c(nnc4C(F)(F)F)C3)CC2)c1C#N [Example 49, 6,8-difluoro-2-methyl-4-(4-(3-(trifluoromethyl)-5,6,7,8-tetrahydro-[1,2,4]triazolo[4,3-a]pyrazine-7-carbonyl)piperidin-1-yl)quinoline-3-carbonitrile]	1730
CO[C@H]1CN(c2c(C#N)cnc3ccc(Cl)cc23)CCC1C(=O)N1CCn2c(nnc2C(F)(F)F)C1 (stereo in doubt) [Example 72d, 6-chloro-4-[(3R,4R)-3-methoxy-4-{[3-(trifluoromethyl)-5,6-dihydro[1,2,4]triazolo[4,3-a]pyrazin-7(8H)-yl]carbonyl}piperidin-1-yl]quinoline-3-carbonitrile]	6140
COc1ccc2c(N3CC[C@H](C(=O)N4CCn5c(nnc5C(F)(F)F)C4)[C@H](C)C3)c(C#N)c(C)nc2c1 [Example 34, 7-methoxy-2-methyl-4-[(3S,4S)-3-methyl-4-{[3-(trifluoromethyl)-5,6-dihdyro[1,2,4]triazolo[4,3-a]pyrazin-7(8H)-yl]carbonyl}piperidin-1-yl]quinoline-3-carbonitrile]	0.89
C=Cc1ccc2nc(C)c(C#N)c(N3CCC(C(=O)N4CCn5c(nnc5C(F)(F)F)C4)CC3)c2c1 [Example 54, 2-methyl-4-(4-(3-(trifluoromethyl)-5,6,7,8-tetrahydro-[1,2,4]triazolo[4,3-a]pyrazine-7-carbonyl)piperidin-1-yl)-6-vinylquinoline-3-carbonitrile]	149
C[C@@H]1CN(c2c(C#N)cnc3c(C(F)F)cc(Cl)cc23)CC[C@@H]1C(=O)N1CCn2c(nnc2C(F)(F)F)C1 [Example 3, 6-chloro-8-(difluoromethyl)-4-[(3S,4S)-3-methyl-4-{[3-(trifluoromethyl)-5,6-dihydro[1,2,4]triazolo[4,3-a]pyrazin-7(8H)-yl]carbonyl}piperidin-1-yl]quinoline-3-carbonitrile]	21
COc1cc(Cl)cc2c(N3CC[C@H](C(=O)N4CCn5c(nnc5C(F)(F)F)C4)[C@H](C)C3)c(C#N)cnc12 [Example 18, 6-chloro-8-methoxy-4-[(3S,4S)-3-methyl-4-{[3-(trifluoromethyl)-5,6-dihydro[1,2,4]triazolo[4,3-a]pyrazin-7(8H)-yl]carbonyl}piperidin-1-yl]quinoline-3-carbonitrile]	0.53
COc1ccc2c(N3CC[C@H](C(=O)N4CCn5c(nnc5C(F)(F)F)C4)[C@H](C)C3)c(C#N)cnc2c1F [Example 2, 8-fluoro-7-methoxy-4-[(3S,4S)-3-methyl-4-{[3-(trifluoromethyl)-5,6-dihydro[1,2,4]triazolo[4,3-a]pyrazin-7(8H)-yl]carbonyl}piperidin-1-yl]quinoline-3-carbonitrile]	0.96

Continued, values first:

IC50 [nM]	Compound
181	N#Cc1cnc2ccc(Cl)cc2c1N1CCC(C(=O)N2CCn3cnnc3C2)CC1 [Example 110, 6-chloro-4-[4-(5,6-dihydro[1,2,4]triazolo[4,3-a]pyrazin-7(8H)-ylcarbonyl)piperidin-1-yl]quinoline-3-carbonitrile]
142	N#Cc1cnc2ccc(Cl)cc2c1N1CCC(C(=O)N2CCc3cn[nH]c3C2)CC1 [Example 108, 6-chloro-4-[4-(1,4,5,7-tetrahydro-6H-pyrazolo[3,4-c]pyridin-6-ylcarbonyl)piperidin-1-yl]quinoline-3-carbonitrile]
69.7	CC1CN(C(=O)C2CCN(c3c(C#N)cnc4ccc(Cl)cc34)CC2)Cc2nnc(C(F)(F)F)n21 (stereo not shown) [Example 112, 6-chloro-4-(4-{[5-methyl-3-(trifluoromethyl)-5,6-dihydro[1,2,4]triazolo[4,3-a]pyrazin-7(8H)-yl]carbonyl}piperidin-1-yl)quinoline-3-carbonitrile]
52	Cc1nc2ccc(Cl)cc2c(N2CC[C@H](C(=O)N3CCn4cc(C(F)(F)F)nc4C3)[C@H](C)C2)c1C#N [Example 99, 6-chloro-2-methyl-4-[(3S,4S)-3-methyl-4-{[2-(trifluoromethyl)-5,6-dihydroimidazo[1,2-a]pyrazin-7(8H)-yl]carbonyl}piperidin-1-yl]quinoline-3-carbonitrile]
28	Cc1nc2ccc(Cl)cc2c(N2CC[C@H](C(=O)N3CCc4c(n[nH]c4C(F)(F)F)C3)[C@H](C)C2)c1C#N [Example 93, 6-chloro-2-methyl-4-[(3S,4S)-3-methyl-4-{[3-(trifluoromethyl)-2,4,5,7-tetrahydro-6H-pyrazolo[3,4-c]pyridin-6-yl]carbonyl}piperidin-1-yl]quinoline-3-carbonitrile]
1.6	C[C@@H]1CN(c2c(C#N)cnc3ccccc23)CC[C@@H]1C(=O)N1CCn2c(nnc2C(F)(F)F)C1 [Example 79, 4-[(3S,4S)-3-methyl-4-{[3-(trifluoromethyl)-5,6-dihydro[1,2,4]triazolo[4,3-a]pyrazin-7(8H)-yl]carbonyl}piperidin-1-yl]quinoline-3-carbonitrile]
0.4	C[C@@H]1CN(c2c(C#N)cnc3c(F)cc(C4CC4)cc23)CC[C@@H]1C(=O)N1CCn2c(nnc2C(F)(F)F)C1 [Example 86, 6-cyclopropyl-8-fluoro-4-((3S,4S)-3-methyl-4-(3-(trifluoromethyl)-5,6,7,8-tetrahydro-[1,2,4]triazolo[4,3-a]pyrazine-7-carbonyl)piperidin-1-yl)quinoline-3-carbonitrile]
1670	CC(C)c1ncc2n1CCN(C(=O)C1CCN(c3c(C#N)cnc4ccc(Cl)cc34)CC1)C2 [Example 115, 6-chloro-4-(4-{[3-(propan-2-yl)-5,6-dihydroimidazo[1,5-a]pyrazin-7(8H)-yl]carbonyl}piperidin-1-yl)quinoline-3-carbonitrile]
307	CC[C@H]1CN(c2c(C#N)cnc3ccc(Cl)cc23)CC[C@H]1C(=O)N1CCn2c(nnc2C(F)(F)F)C1 [Example 75a, 6-chloro-4-[(3R,4R)-3-ethyl-4-{[3-(trifluoromethyl)-5,6-dihydro[1,2,4]triazolo[4,3-a]pyrazin-7(8H)-yl]carbonyl}piperidin-1-yl]quinoline-3-carbonitrile]
14	CC1(C(=O)N2CCn3c(nnc3C(F)(F)F)C2)CCN(c2c(C#N)cnc3ccc(Cl)cc23)CC1 [Example 121, 6-chloro-4-(4-methyl-4-{[3-(trifluoromethyl)-5,6-dihydro[1,2,4]triazolo[4,3-a]pyrazin-7(8H)-yl]carbonyl}piperidin-1-yl)quinoline-3-carbonitrile]
0.4	C[C@@H]1CN(c2c(C#N)cnc3ccc(Cl)cc23)CC[C@@H]1C(=O)N1CCn2c(nnc2C(F)(F)F)C1 (single isomer, unassigned) [Example 116a]

Same assay, conditions: read-out: Human CYP8B1 IC50; human liver microsomes; substrate 7a-hydroxy-4-cholesten-3-one, NADPH; RapidFire MS detection of 7α,12α-dihydroxy-4-cholesten-3-one

IC50 [nM]	Compound
0.3	C[C@H]1CN(c2c(C#N)cnc3ccc(C(F)(F)F)cc23)CC[C@H]1C(=O)N1CCn2c(nnc2C(F)(F)F)C1 (single isomer, unassigned) [Example 119b]

Source: patent US10414774B2, “Compound useful for altering the levels of bile acids for the treatment of diabetes and cardiometabolc disease” (Merck Sharp & Dohme Corp., priority 2016, dated 2019)
